Data on 14 molecules can be found in patent US11548900B2, “Oxazino-quinazoline and oxazino-quinoline type compound, preparation method and uses thereof” (BEIJING SCITECH-MQ PHARMACEUTICALS LIMITED, priority 2018, dated 2023).

In one assay the test system is BT474 cells. As to the kind of experiment: Inhibition of cell proliferation, BT474 (CCK-8, 72 h). Type of assay: cell-based. To be noted: Homo sapiens, BT-474, 72 h incubation. As for the experimental part: (§1) The assay for the inhibition of cell proliferation by small molecular compounds was carried out using the method as follows:
(§2) 1. 600 μL pancreatin was added to a T75 cell culture flask, which was digested in a 37° C. incubator for about 1 min before 5 mL of DMEM complete culture solution was added, blew evenly, transferred to a 15 mL centrifuge tube, and centrifuged at 1000 rpm for 4 min;
(§3) 2. The supernatant was removed and 5 mL DMEM complete culture solution was added, blew evenly, and 10 μL cell suspension was taken and mixed with 10 μL 0.4% Trypan Blue, and counted using a cell counter;
(§4) 3. BT474 and HCC827 cell lines were seeded in 96-well plates at a cell density of 10,000 and 3000 cells/well/80 μL, respectively, and cultured overnight. Only sterile water was added to the 36 wells on the periphery of the 96-well plate without adding cells, and only the 60 wells in the center of the 96-well plate were used for cell assays and controls;
(§5) 4. Dilution of compounds: the compounds were diluted with a 3-fold dilution to make 10 concentrations in total with an initial concentration of 10 mM;
(§6) 5. 20 μL of different compounds with different concentrations were added to each well, and 20 μL of complete culture solution was added to the remaining wells. The final concentration of DMSO in each well is 0.25%;
(§7) 6. After 72 h of incubation, 10 μL CCK-8 reagent was added to each well, and incubated at 37° C. for 1-2 h; and the OD value was read at 450 nm;
(§8) 7. Cell survival rate (%)=[(As−Ab)/(Ac−Ab)]*100%
(§9) As: Assay well (medium containing cell, CCK-8, compound)
(§10) Ac: Control well (medium containing cell, CCK-8)
(§11) Ab: Blank well (CCK-8, medium without cell and compound)
(§12) 8. The value was imported into Graphpad Prism5 software for the calculation of IC50s (compound concentration at which 50% maximum survival rate is observed).

For the next assay, the system named is HCC827 cells. As to the kind of experiment: Inhibition of cell proliferation, HCC827 (CCK-8, 72 h). Type of assay: cell-based. To be noted: Homo sapiens, 72 h incubation. As for the experimental part: as §1, §2, §3, §4, §5, §6, §7, §8, §9, §10, §11, §12
A further assay has as its target HER2 kinase (Homo sapiens (Human), UniProt P04626). As to the kind of experiment: Inhibition of HER2 kinase activity (ULight-labeled PolyGT substrate). Type of assay: biochemical. Conditions: HER2 kinase 10 nM, ATP 10 μM, 2 hours. The method, boiled down: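 Eleven-point 3-fold dilutions (0.042 nM–2.5 μM final, 1% DMSO) tested in duplicate against 10 nM HER2 with 100 nM ULight-labelled PolyGT and 10 μM ATP. Reaction ran 2 h at RT after 5 min pre-incubation; 665/615 nm TR-FRET ratio used to derive inhibition and IC50.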

For a further assay, the target named is EGFR kinase (Homo sapiens (Human), UniProt P00533). As to the kind of experiment: Inhibition of EGFR kinase activity (ULight-labeled JAK-1 (Tyr1023) peptide substrate). Type of assay: biochemical. To be noted: EGFR kinase 0.35 nM, ATP 150 μM, 2 hours. As for the experimental part: The assay for the inhibition of EGFR and HER2 kinase activity by small molecular compounds was carried out using the method as follows:
1) Dilution of the compounds
In a 96-well plate a, the compounds were diluted with DMSO using a 3-fold gradient dilution to form 11 concentrations, the 12th concentration is pure DMSO (as a positive control); and in a new 96-well plate b the above solutions were diluted 25 times with ultrapure water (DMSO concentration is 4%).
2) Transferring the compounds to 384-well plate
The compound solutions diluted with ultrapure water in the 96-well plate b above was transferred to the corresponding wells of a 384-well plate in duplicate.
3) Addition of 4×kinase solution: 2.5 μl of the above 4× kinase solution was taken using multichannel pipette and added to the corresponding reaction wells of the 384-well plate, mixed well and pre-reacted at room temperature for 5 minutes.
4) Addition of 2×substrate/ATP mixed solution: 5 μl of the above 2×substrate/ATP mixed solution was taken using multichannel pipette and added to the corresponding reaction wells of the 384-well plate.
5) Negative control: negative control wells were set in the 384-well plate, and 2.5 μl 4×substrate, 2.5 μl 4×enzyme solution, 2.5 μl 1×Kinase Assay Buffer and 2.5 μl ultrapure water containing 4% DMSO were added to each well.
6) Mixed by centrifugation and kept at room temperature for 2 hours in the dark.
7) Termination of the enzymatic reaction:
5 μl of the above 4× stop solution was pipetted to the corresponding wells of the 384-well plate, centrifuged and mixed, and reacted at room temperature for 5 minutes.
5 μl of the above 4× detection solution was pipetted into the corresponding wells of the 384-well plate, centrifuged and mixed, and reacted at room temperature for 1 hour.
9) The 384-well plate was placed into a microplate reader and the signal was detected using the corresponding program.
10) IC50 analysis: Well reading value=10000*EU665 value/EU615 value Inhibition rate=(reading value of positive control well−reading value of experimental well)/(reading value of positive control well−reading value of negative control well)*100% Corresponding IC50s can be calculated by entering the drug concentrations and the corresponding inhibition rates into GraphPad Prism 5.
Conditions of experiment for screening EGFR kinase inhibitory molecules:
The final concentration of EGFR kinase in the reaction system is 0.35 nM, and the final concentration of ATP is 150 μM, the final concentration of substrate ULight™-labeled JAK-1 (Tyr1023) Peptide is 100 nM, and the enzymatic reaction time is 2 hours.
The maximum final concentration of the compound in the reaction system is 2.5 μM, 11 concentrations were made with a 3-fold gradient dilution, and the minimal final concentration is 0.042 nM. The final concentration of DMSO is 1%.

EGFR kinase, sequence (P00533 25-1210): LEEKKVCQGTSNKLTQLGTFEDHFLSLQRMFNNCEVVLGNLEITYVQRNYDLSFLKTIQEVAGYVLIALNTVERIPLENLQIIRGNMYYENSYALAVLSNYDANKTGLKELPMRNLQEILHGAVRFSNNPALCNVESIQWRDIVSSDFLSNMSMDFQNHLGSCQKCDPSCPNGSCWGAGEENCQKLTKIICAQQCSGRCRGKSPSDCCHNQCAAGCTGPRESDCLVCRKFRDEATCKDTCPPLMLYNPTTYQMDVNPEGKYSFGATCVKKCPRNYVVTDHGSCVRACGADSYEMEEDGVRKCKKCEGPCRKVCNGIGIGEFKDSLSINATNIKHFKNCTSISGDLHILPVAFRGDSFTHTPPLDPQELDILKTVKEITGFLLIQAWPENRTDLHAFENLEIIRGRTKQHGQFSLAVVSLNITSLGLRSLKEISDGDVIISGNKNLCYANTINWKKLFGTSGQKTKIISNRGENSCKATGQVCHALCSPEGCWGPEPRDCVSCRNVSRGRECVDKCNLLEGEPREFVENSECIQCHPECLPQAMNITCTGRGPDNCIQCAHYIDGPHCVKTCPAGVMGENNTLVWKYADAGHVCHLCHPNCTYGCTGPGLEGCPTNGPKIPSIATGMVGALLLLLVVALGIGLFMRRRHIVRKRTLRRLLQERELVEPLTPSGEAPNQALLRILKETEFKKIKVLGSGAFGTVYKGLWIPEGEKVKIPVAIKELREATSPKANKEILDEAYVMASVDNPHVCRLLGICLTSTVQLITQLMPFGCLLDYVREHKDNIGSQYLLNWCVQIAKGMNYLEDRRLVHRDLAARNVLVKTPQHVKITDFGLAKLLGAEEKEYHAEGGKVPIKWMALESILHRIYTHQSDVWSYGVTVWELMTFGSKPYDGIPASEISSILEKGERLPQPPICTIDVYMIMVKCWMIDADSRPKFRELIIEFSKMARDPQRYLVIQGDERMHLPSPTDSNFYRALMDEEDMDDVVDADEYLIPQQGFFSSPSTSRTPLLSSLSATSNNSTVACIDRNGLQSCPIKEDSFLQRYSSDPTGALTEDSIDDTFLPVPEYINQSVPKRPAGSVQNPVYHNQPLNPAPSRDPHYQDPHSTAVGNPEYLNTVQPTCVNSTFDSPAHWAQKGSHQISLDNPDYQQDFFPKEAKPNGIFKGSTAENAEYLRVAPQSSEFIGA
HER2 kinase, sequence (P04626 23-1255): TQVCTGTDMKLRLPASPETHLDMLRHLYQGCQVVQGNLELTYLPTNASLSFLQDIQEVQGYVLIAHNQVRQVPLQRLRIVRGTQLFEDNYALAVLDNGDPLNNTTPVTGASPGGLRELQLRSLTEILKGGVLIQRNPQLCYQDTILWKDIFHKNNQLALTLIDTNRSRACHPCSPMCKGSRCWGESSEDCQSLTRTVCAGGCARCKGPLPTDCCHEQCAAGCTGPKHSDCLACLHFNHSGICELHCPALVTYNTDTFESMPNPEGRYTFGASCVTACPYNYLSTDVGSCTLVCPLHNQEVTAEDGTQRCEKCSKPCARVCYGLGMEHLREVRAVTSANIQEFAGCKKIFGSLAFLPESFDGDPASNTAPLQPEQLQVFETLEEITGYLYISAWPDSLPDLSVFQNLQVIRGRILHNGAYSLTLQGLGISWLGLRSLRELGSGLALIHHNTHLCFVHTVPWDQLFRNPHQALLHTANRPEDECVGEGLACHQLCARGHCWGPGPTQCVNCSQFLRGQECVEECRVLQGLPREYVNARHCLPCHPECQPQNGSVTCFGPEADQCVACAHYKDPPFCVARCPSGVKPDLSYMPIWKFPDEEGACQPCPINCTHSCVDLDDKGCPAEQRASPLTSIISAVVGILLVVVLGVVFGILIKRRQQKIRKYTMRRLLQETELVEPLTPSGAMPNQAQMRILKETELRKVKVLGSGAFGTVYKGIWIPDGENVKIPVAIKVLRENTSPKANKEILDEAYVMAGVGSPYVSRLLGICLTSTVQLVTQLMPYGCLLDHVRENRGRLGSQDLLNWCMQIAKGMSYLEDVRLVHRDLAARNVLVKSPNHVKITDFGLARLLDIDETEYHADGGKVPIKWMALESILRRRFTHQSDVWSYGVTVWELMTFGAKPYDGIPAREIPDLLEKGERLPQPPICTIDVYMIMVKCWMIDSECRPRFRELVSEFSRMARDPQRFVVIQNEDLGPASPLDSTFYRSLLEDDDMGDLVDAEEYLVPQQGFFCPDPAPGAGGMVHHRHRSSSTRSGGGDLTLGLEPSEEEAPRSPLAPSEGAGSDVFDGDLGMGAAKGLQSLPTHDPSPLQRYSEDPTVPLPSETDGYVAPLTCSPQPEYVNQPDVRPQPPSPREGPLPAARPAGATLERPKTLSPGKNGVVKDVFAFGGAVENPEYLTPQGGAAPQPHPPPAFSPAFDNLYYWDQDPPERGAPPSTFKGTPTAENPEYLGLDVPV

`CN(C)C/C=C/C(=O)N1CCOc2c1ccc1ncnc(Nc3ccc(Oc4ccccc4)c(F)c3)c21` [Example 58, (E)-4-(dimethylamino)-1-(10-((3-fluoro-4-phenoxyphenyl)amino)-2,3-dihydro-4H-[1,4]oxazino[2,3-f]quinazolin-4-yl)but-2-en-1-one]: the IC50 (commonly the concentration that inhibits the measured activity by half) with BT474 cells was no more than 50 nM; in the assay with HCC827 cells, 50 to 500 nM; against HER2 kinase, no more than 50 nM.
Take `CN(C)C/C=C/C(=O)N1CCOc2c1ccc1ncnc(Nc3ccc(OCc4ccccc4)cc3)c21` [Example 78, (E)-1-(10-((4-(benzyloxy)phenyl)amino)-2,3-dihydro-4H-[1,4]oxazino[2,3-f]quinazolin-4-yl)-4-(dimethylamino)but-2-en-1-one]: the IC50 is no more than 50 nM with BT474 cells, 500 to 5000 nM with HCC827 cells and no more than 50 nM against HER2 kinase.
As to `O=C(/C=C/CNC1CC1)N1CCOc2c1ccc1ncnc(Nc3ccc(OCc4ccccn4)c(Cl)c3)c21` [Example 101, (E)-1-(10-((3-chloro-4-(pyridin-2-ylmethoxy)phenyl)amino)-2,3-dihydro-4H-[1,4]oxazino[2,3-f]quinazolin-4-yl)-4-(cyclopropylamino)but-2-en-1-one], the 50% inhibitory concentration (IC50) in the assay with HCC827 cells was in the range of 500 to 5000 nM; against HER2 kinase it was 50 to 500 nM.
For the molecule `CC(C)N(C)C/C=C/C(=O)N1CCOc2c1ccc1ncnc(Nc3ccc(Oc4ccn5ncnc5c4)c(Cl)c3)c21` [Example 127, (E)-1-(10-((4-([1,2,4]triazolo[1,5-a]pyridin-7-yloxy)-3-chlorophenyl)amino)-2,3-dihydro-4H-[1,4]oxazino[2,3-f]quinazolin-4-yl)-4-(isopropyl(methyl)amino)but-2-en-1-one], the IC50 is 50 to 500 nM at EGFR kinase, no more than 50 nM in the assay on BT474 cells and no more than 50 nM against HER2 kinase.
For `O=C(/C=C/CN1CCCCC1)N1CCOc2c1ccc1ncnc(Nc3ccc(Oc4ccn5ncnc5c4)c(Cl)c3)c21` [Example 128, (E)-1-(10-((4-([1,2,4]triazolo[1,5-a]pyridin-7-yloxy)-3-chlorophenyl)amino)-2,3-dihydro-4H-[1,4]oxazino[2,3-f]quinazolin-4-yl)-4-(piperidin-1-yl)but-2-en-1-one], the results for the IC50 on EGFR kinase, in the assay on BT474 cells and against HER2 kinase were 50 to 500 nM, no more than 50 nM and no more than 50 nM, respectively.
Consider `CN(C/C=C/C(=O)N1CCOc2c1ccc1ncnc(Nc3ccc(Oc4ccn5ncnc5c4)c(Cl)c3)c21)C1CCC1` [Example 129, (E)-1-(10-((4-([1,2,4]triazolo[1,5-a]pyridin-7-yloxy)-3-chlorophenyl)amino)-2,3-dihydro-4H-[1,4]oxazino[2,3-f]quinazolin-4-yl)-4-(cyclobutyl(methyl)amino)but-2-en-1-one], for which the IC50 against EGFR kinase was 50 to 500 nM; with BT474 cells it was no more than 50 nM; against HER2 kinase it was no more than 50 nM.
Regarding `COCCN(C)C/C=C/C(=O)N1CCOc2c1ccc1ncnc(Nc3ccc(Oc4ccn5ncnc5c4)c(Cl)c3)c21` [Example 130, (E)-1-(10-((4-([1,2,4]triazolo[1,5-a]pyridin-7-yloxy)-3-chlorophenyl)amino)-2,3-dihydro-4H-[1,4]oxazino[2,3-f]quinazolin-4-yl)-4-((2-methoxyethyl)(methyl)amino)but-2-en-1-one], the results for the IC50 against EGFR kinase, with BT474 cells and against HER2 kinase were 50 to 500 nM, no more than 50 nM and no more than 50 nM, respectively.
As to `CCN(CC)C/C=C/C(=O)N1CCOc2c1ccc1ncnc(Nc3ccc(Oc4ccn5ncnc5c4)c(Cl)c3)c21` [Example 131, (E)-1-(10-((4-([1,2,4]triazolo[1,5-a]pyridin-7-yloxy)-3-chlorophenyl)amino)-2,3-dihydro-4H-[1,4]oxazino[2,3-f]quinazolin-4-yl)-4-(diethylamino)but-2-en-1-one], the figures for the IC50 on EGFR kinase, with BT474 cells and against HER2 kinase were 50 to 500 nM, no more than 50 nM and no more than 50 nM, respectively.
For the molecule `Cc1cc(Nc2ncnc3ccc4c(c23)OCCN4C(=O)/C=C/CN2CCN(C)CC2)ccc1Oc1ccn2ncnc2c1` [Example 132, (E)-1-(10-((4-([1,2,4]triazolo[1,5-a]pyridin-7-yloxy)-3-methylphenyl)amino)-2,3-dihydro-4H-[1,4]oxazino[2,3-f]quinazolin-4-yl)-4-(4-methylpiperazin-1-yl)but-2-en-1-one], the values for the concentration for half-maximal inhibition (IC50) against EGFR kinase, in the assay with BT474 cells and against HER2 kinase were 50 to 500 nM, no more than 50 nM and no more than 50 nM, respectively.
Consider `Cc1cc(Nc2ncnc3ccc4c(c23)OCCN4C(=O)/C=C/CN(C)C(C)C)ccc1Oc1ccn2ncnc2c1` [Example 133, (E)-1-(10-((4-([1,2,4]triazolo[1,5-a]pyridin-7-yloxy)-3-methylphenyl)amino)-2,3-dihydro-4H-[1,4]oxazino[2,3-f]quinazolin-4-yl)-4-(isopropyl(methyl)amino)but-2-en-1-one], for which the results for the IC50 on EGFR kinase, in the assay on BT474 cells and on HER2 kinase were 500 to 5000 nM, no more than 50 nM and no more than 50 nM, respectively.
Regarding `Cc1cc(Nc2ncnc3ccc4c(c23)OCCN4C(=O)/C=C/CN2CCCCC2)ccc1Oc1ccn2ncnc2c1` [Example 134, (E)-1-(10-((4-([1,2,4]triazolo[1,5-a]pyridin-7-yloxy)-3-methylphenyl)amino)-2,3-dihydro-4H-[1,4]oxazino[2,3-f]quinazolin-4-yl)-4-(piperidin-1-yl)but-2-en-1-one], the figures for the half-inhibitory concentration (IC50) on EGFR kinase, in the assay with BT474 cells and against HER2 kinase were 50 to 500 nM, no more than 50 nM and no more than 50 nM, respectively.
Take `Cc1cc(Nc2ncnc3ccc4c(c23)OCCN4C(=O)/C=C/CN(C)C2CCC2)ccc1Oc1ccn2ncnc2c1` [Example 135, (E)-1-(10-((4-([1,2,4]triazolo[1,5-a]pyridin-7-yloxy)-3-methylphenyl)amino)-2,3-dihydro-4H-[1,4]oxazino[2,3-f]quinazolin-4-yl)-4-(cyclobutyl(methyl)amino)but-2-en-1-one]: the results for the concentration for half-maximal inhibition (IC50) against EGFR kinase, in the assay with BT474 cells and at HER2 kinase were 50 to 500 nM, no more than 50 nM and no more than 50 nM, respectively.
On to `COCCN(C)C/C=C/C(=O)N1CCOc2c1ccc1ncnc(Nc3ccc(Oc4ccn5ncnc5c4)c(C)c3)c21` [Example 136, (E)-1-(10-((4-([1,2,4]triazolo[1,5-a]pyridin-7-yloxy)-3-methylphenyl)amino)-2,3-dihydro-4H-[1,4]oxazino[2,3-f]quinazolin-4-yl)-4-((2-methoxyethyl)(methyl)amino)but-2-en-1-one], for which the half-inhibitory concentration (IC50) against EGFR kinase is 50 to 500 nM; in the assay on BT474 cells it was no more than 50 nM; on HER2 kinase, no more than 50 nM.
For `CCN(CC)C/C=C/C(=O)N1CCOc2c1ccc1ncnc(Nc3ccc(Oc4ccn5ncnc5c4)c(C)c3)c21` [Example 137, (E)-1-(10-((4-([1,2,4]triazolo[1,5-a]pyridin-7-yloxy)-3-methylphenyl)amino)-2,3-dihydro-4H-[1,4]oxazino[2,3-f]quinazolin-4-yl)-4-(diethylamino)but-2-en-1-one], the values for the concentration for half-maximal inhibition (IC50) against EGFR kinase, in the assay on BT474 cells and on HER2 kinase were 500 to 5000 nM, no more than 50 nM and no more than 50 nM, respectively.
